# Assay results from patent US5208326A, “8-hydroxy-2H-dibenz(b,f)azepin-2-one dyes” (Miles Inc., priority 1991, dated 1993).
# What was measured:
# [1] = pKa of the acid/base indicator dye; format: physicochemical
# [2] = test system: β-galactosidase; assay: Substrate evaluation: hydrolysis by β-galactosidase in solution; format: biochemical
# [3] = 50 mM phosphate buffer pH 7.4 (containing no magnesium)
SMILES,pKa [1],substrate for β-galactosidase (in words) [2],"Km [2, 3] [µM]","rate (Kcat) of hydrolysis to give 2 [2, 3]"
"O=c1ccc2nc3ccc(O)cc3ccc-2c1 [Compound 1, 8-Hydroxy-2H-dibenz[b,f]azepin-2-one]",6.34,,,
"O=C1C=CC2=Nc3ccc(O)cc3CCC2=C1 [Compound 2, 8-Hydroxy-10,11-dihydro-2H-dibenz[b,f]azepin-2-one]",6.95,,,
"O=c1ccc2nc3ccc(O[C@@H]4O[C@H](CO)[C@H](O)[C@H](O)[C@H]4O)cc3ccc-2c1 [Compound 3, 8-(β-D-galactopyranosyloxy)-2H-dibenz[b,f]azepin-2-one]",,substrate for β-galactosidase,,
"O=C1C=CC2=Nc3ccc(O[C@@H]4O[C@H](CO)[C@H](O)[C@H](O)[C@H]4O)cc3CCC2=C1 [Compound 4, 8-(β-D-galactopyranosyloxy)-10,11-dihydro-2H-dibenz [b,f]azepin-2-one]",,substrate for β-galactosidase,96,7.07×10^3 mol. min^-1 /mol. active site
